Source: PubChem BioAssay (NCI)
Several values for one entry are separate records, joined by “and”; a condition that tells them apart may be missing. Equal values may be shown once.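 Exposure lasted 48 hours, with cells grown in 96-well plates and compounds tested at five concentrations. Abbreviation: GI50, concentration required for 50% inhibition of growth. TGI marks complete inhibition of growth.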

Assays:
Test in all cases: DTP human tumour cell line panel, 48 h
[1] = test system: SN12C renal
[2] = test system: HOP-92 NSCLC
[3] = test system: MALME-3M melanoma
[4] = test system: TK-10 renal
[5] = test system: K-562 leukemia
[6] = test system: COLO 205 colon
[7] = test system: UACC-257 melanoma
[8] = test system: HL-60(TB) leukemia
[9] = test system: 786-0 renal
[10] = test system: ACHN renal

Structure (SMILES) | GI50 [1] | TGI [1] | GI50 [2] | TGI [2] | GI50 [3] | TGI [3] | GI50 [4] | TGI [4] | GI50 [5] | TGI [5] | GI50 [6] | TGI [6] | GI50 [7] | TGI [7] | GI50 [8] | TGI [8] | GI50 [9] | TGI [9] | GI50 [10] | TGI [10]
CNc1nc(N(C)C)nc(N(C)C)n1 | > 100 µM and 2050 µM | > 100 µM and 3960 µM | > 100 µM and 277 µM | > 100 µM and 809 µM | > 100 µM and 1160 µM | > 100 µM and 2110 µM | > 100 µM and 2270 µM | > 100 µM and 4960 µM | > 100 µM and 831 µM | > 100 µM and 3230 µM | > 100 µM and 1780 µM | > 100 µM and 4010 µM | > 100 µM and 1640 µM | > 100 µM and 3580 µM | > 100 µM and 2350 µM | > 100 µM and 4200 µM | > 100 µM and 2790 µM | > 100 µM and 4840 µM | > 100 µM and 1900 µM | > 100 µM and 3610 µM
N=C(N)c1ccc(-c2ccc(-c3cccs3)s2)nc1 | 1.68 µM | 5.38 µM | 0.46 µM | 2.23 µM | 1.96 µM | 3.57 µM | 1.03 µM | 2.33 µM | 1.61 µM | 3.81 µM | 0.248 µM | 1.09 µM | 1.74 µM | 3.5 µM | 1.78 µM | 4.01 µM | 1.67 µM | 3.3 µM | 1.76 µM | 3.33 µM
O=C(N/N=C\c1ccc(N(CCCl)CCCl)cc1Cl)c1cccnc1 | 24.1 µM | > 84.4 µM | 15.1 µM | 69.1 µM | 21.4 µM | 64.2 µM | 0.991 µM | 7.84 µM | 7.38 µM | > 100 µM | 8.5 µM | 38.1 µM | 1.08 µM | 3.48 µM | 7.5 µM | 36.5 µM | 15.1 µM | 56.6 µM | 28.5 µM | > 100 µM
C=C1CC[C@@H]2[C@](C)(COC(C)=O)[C@H](OC(C)=O)CC[C@@]2(C)[C@@H]1C/C=C1/C(=O)OC[C@H]1OC(C)=O | 3.07 µM | 13.3 µM | 13.2 µM | 26.4 µM | 2.98 µM | 7.95 µM | 3.81 µM | 13.3 µM | 2.63 µM | 32.1 µM | 3.37 µM | 11.4 µM | 6.2 µM | 19.9 µM | 2.61 µM | 6.78 µM | 2.02 µM | 4.34 µM | 1.71 µM | 3.22 µM
Oc1c(N=Nc2ccccc2)c2ccccc2c2ccc3ccccc3c12 | – | > 100 µM | – | > 100 µM | – | > 100 µM | – | > 100 µM | – | > 100 µM | – | > 100 µM | – | > 100 µM | – | > 100 µM | – | > 100 µM | – | > 100 µM
C=CC(=O)Nc1cccc(C)c1Nc1ncc2cc(-c3c(Cl)c(OC)cc(OC)c3Cl)ccc2n1 | 5.87 µM | > 100 µM | 6.99 µM | 36.8 µM | 3.98 µM | 31.4 µM | 3.25 µM | 22.1 µM | 3.89 µM | > 100 µM | 4.17 µM | 36.7 µM | 3.43 µM | 68.3 µM | 2.13 µM | 15 µM | 2.33 µM | 10.1 µM | 7.01 µM | > 100 µM
